Data reported in US12459914B2, “Compounds and compositions for the treatment of tumors” (FONDAZIONE ISTITUTO ITALIANO DI TECNOLOGIA, priority 2019, dated 2025).

Columns and labels:
[1] = test system: BxPC-3 cells; assay: Association with olaparib (given alone or in combination), cell viability / cytotoxicity; assay type: cell-based; settings: olaparib 10 μM, 72 h
Method: BxPC-3 cells were grown in RPMI 1640 containing 10% FBS, 100 U/ml penicillin/streptomycin, 2 mM glutamine. All media and supplements were from Sigma-Aldrich. Cultures were routinely tested for Mycoplasma contamination. Treatments (Olaparib and BRCA2-Rad51 disruptors) were administered in culture medium supplemented with 0.6% DMSO. The same amount of DMSO was added to the control, untreated cultures.
Cell viability was assessed by CellTiter Glo, Luminescent Cell Viability Assay. Briefly, BxPC-3 cells (1×10^4/well) were plated in white 96-well plates with clear bottom and treated for 72 h with olaparib (10 μM) or with the BRCA2-Rad51 disruptors, given alone or in combination. After treatments, the plate was allowed to equilibrate at room temperature for 30 min and the CellTiter-Glo reactive was directly added to each well. The plate was kept on a shaker for 2 min to induce cell lysis and its luminescence was measured by using a Fluoroskan Ascent FL reader (Labsystems) using manufacturer's instructions.
Cell death was assessed by applying the CellTox™ Green Cytotoxicity assay (Promega). Briefly, BxPC-3 (1×10^4/well) were plated in black 96-well plates with clear bottom and treated for 72 h with olaparib (10 μM) or with the BRCA2-Rad51 disruptors, given alone or in combination. At the end of treatment, the CellTox™ dye was added to cell cultures and the green fluorescence signal, which is produced by the binding interaction with dead cell DNA, was measured following the manufacturer's instructions. The fluorescence signal was detected using the EnSpire 2300 Multilabel Reader (Perkin Elmer); for each sample, the obtained signal was normalized on the number of viable cells, detected by the CellTiterGlo reagent.

[2] = target: T1, BRC4/RAD51 interaction (Homo sapiens, UniProt Q06609); assay: Competitive ELISA assay, disruption of BRC4/RAD51 interaction; assay type: binding; settings: human Rad51, biotinylated BRC4 peptide
T1 construct: purchased Creative Biomart (Rad51); Life Technologies (BRC4 peptide)
T1 sequence (Q06609 1-339): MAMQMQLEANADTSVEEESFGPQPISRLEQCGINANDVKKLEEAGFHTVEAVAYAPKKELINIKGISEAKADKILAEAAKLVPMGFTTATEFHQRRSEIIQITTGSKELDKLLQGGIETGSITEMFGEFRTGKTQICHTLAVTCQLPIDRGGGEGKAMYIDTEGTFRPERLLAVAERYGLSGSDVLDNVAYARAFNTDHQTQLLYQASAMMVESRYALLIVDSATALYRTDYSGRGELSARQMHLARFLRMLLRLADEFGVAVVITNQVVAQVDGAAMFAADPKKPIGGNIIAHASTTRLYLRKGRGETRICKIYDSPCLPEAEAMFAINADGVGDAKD
Procedure, shortened: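 Competitive ELISA: plates coated with biotinylated BRC4 peptide, blocked with 1% BSA/PBST, then hybridized overnight with human Rad51 protein. Compounds tested in triplicate dose-response, […], 1% DMSO. Bound Rad51 detected colorimetrically with anti-Rad51 antibody, HRP secondary and TMB quenched with HCl.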

EC50 [2]: 19 µM
SMILES: CCC(=O)N1N=C(c2c(-c3ccccc3)c3cc(Cl)ccc3[nH]c2=O)CC1c1ccc(OC)cc1 (centres unmarked) [d.12, 6-chloro-3-[3-(4-methoxyphenyl)-2-propanoyl-3,4-dihydropyrazol-5-yl]-4-phenyl-1H-quinolin-2-one]
Olaparib Assoc. [1]: synergy
